Values of other authors as cited in patent US12465047B2, “Preparation method for L-glufosinate-ammonium powder” (ZHEJIANG UNIVERSITY OF TECHNOLOGY, priority 2020, dated 2025).

Conditions: stated as the reason for adjusting pH to 2-2.5 in step (4)

For `CP(=O)(O)CC[C@H](N)C(=O)O.N` [L-glufosinate ammonium], the isoelectric point is given as 2.66 pH.
